From patent US5064815A, “Primycin-containing colloidal basic gel” (Chinoin Gyogyszer es Vegyeszeti Termekek Gyara RT., priority 1985, dated 1991)
Structures can show the parent of a compound that is named as a salt. Where two headings read alike, the source gives them in different places.

Key:
[1] = Solubility in N-methyl pyrrolidone; assay type: physicochemical; conditions: for Behaviour of heated N-methyl pyrrolidone solution on cooling: significant heating needed
From the text: We have examined the quantity in ml of N-methyl-pyrrolidone which is necessary to dissolve 0.1 gram of each respective compound.

[2] = Spontaneous gel-formation with solvents / with N-methyl-pyrrolidone / mixed gels; assay type: physicochemical
From the text: We have studies spontaneous gel-formation with various solvents on the one hand and various pharmaceutical active ingredients on the other. The following solvents are used: methanol, ethanol, isopropanol, n-butanol, isobutanol, dichloromethane, chloroform, carbon tetrachloride, ethyl acetate, acetonitrile, n-hexane, petrol, benzene, toluene, petrolether, ether, dimethyl formamide, dimethyl sulfoxide, isopropyl myristate.
Furtheron gel-formation has been studied between N-methyl-pyrrolidone and further pharmaceutical active ingredients. The following active ingredients are used: gentamycin, doxycyclin, oxolinic acid, nalidixic acid, drotaverin, theophyllin, acetyl salicylic acid, papaverin, indomethacin.
We have studied furtheron the possibility of the preparation of mixed gels comprising two active ingredients, including antibiotics other then primycin (e.g. gentamicin, doxycyclin, oxytetracyclin, chloramphenicol etc.).

acne = conditions: human, in vivo
gram-positive bacteria = conditions: cited from earlier work

Compound: CCCSc1ccc2nc(NC(=O)OC)[nH]c2c1 [Albendazole]
- Required amount of N-methyl pyrrolidone necessary to dissolve 0.1 g ([1]; (A) Room Temperature): 1.5 milliliters
- Required amount of N-methyl pyrrolidone necessary to dissolve 0.1 g ([1]; (B) Under Heating): 1.0 milliliters

Compound: CCn1cc(C(=O)O)c(=O)c2cc3c(cc21)OCO3 [oxolinic acid]
- Gel formation with N-methyl-pyrrolidone [2]: None of the above active ingredients form a stable transparent gel
- Required amount of N-methyl pyrrolidone necessary to dissolve 0.1 g ([1]; (A) Room Temperature): does not dissolve
- Required amount of N-methyl pyrrolidone necessary to dissolve 0.1 g ([1]; (B) Under Heating): 8.0 milliliters
- Behaviour of heated N-methyl pyrrolidone solution on cooling [1]: precipitates after

Compound: CCOc1ccc(/C=C2\NCCc3cc(OCC)c(OCC)cc32)cc1OCC [drotaverin]
- Gel formation with N-methyl-pyrrolidone [2]: None of the above active ingredients form a stable transparent gel

Compound: CCn1cc(C(=O)O)c(=O)c2ccc(C)nc21 [nalidixic acid]
- Gel formation with N-methyl-pyrrolidone [2]: None of the above active ingredients form a stable transparent gel
- Required amount of N-methyl pyrrolidone necessary to dissolve 0.1 g ([1]; (A) Room Temperature): does not dissolve
- Required amount of N-methyl pyrrolidone necessary to dissolve 0.1 g ([1]; (B) Under Heating): 6.0 milliliters
- Behaviour of heated N-methyl pyrrolidone solution on cooling [1]: precipitates after cooling

Compound: C[C@H]1c2cccc(O)c2C(O)=C2C(=O)[C@]3(O)C(O)=C(C(N)=O)C(=O)[C@@H](N(C)C)[C@@H]3[C@@H](O)[C@@H]21 [doxycyclin]
- Gel formation with N-methyl-pyrrolidone [2]: None of the above active ingredients form a stable transparent gel
- Required amount of N-methyl pyrrolidone necessary to dissolve 0.1 g ([1]; (A) Room Temperature): 10.0 milliliters
- Required amount of N-methyl pyrrolidone necessary to dissolve 0.1 g ([1]; (B) Under Heating): 2.0 milliliters

Compound: CC(=O)OCC(=O)[C@@]1(O)CC[C@H]2[C@@H]3CCC4=CC(=O)CC[C@]4(C)[C@H]3[C@@H](O)C[C@@]21C [Hydrocortisone-Acetate]
- Required amount of N-methyl pyrrolidone necessary to dissolve 0.1 g ([1]; (A) Room Temperature): 1.0 milliliters
- Required amount of N-methyl pyrrolidone necessary to dissolve 0.1 g ([1]; (B) Under Heating): 0.2 milliliters

Compound: COc1ccc2c(c1)c(CC(=O)O)c(C)n2C(=O)c1ccc(Cl)cc1 [indomethacin]
- Gel formation with N-methyl-pyrrolidone [2]: None of the above active ingredients form a stable transparent gel

Compound: [5-(18-(α-D-arabinofuranosyloxy)-2-butyl-3,7,11,15,19,21,23,25,27-nonahydroxy-4,16,32,34-tetramethyl-1-oxo-oxacyclohexatriaconta-16,32-dien-35- yl)-4-hydroxyhexyl]-guanidinium-sulfate [Primycin]
- Gel formation with N-methyl-pyrrolidone [2]: spontaneous gel-formation resulting in the formation of a stable transparent gel
- Pure gel formation with other solvents ([2]; ethanol amine, diethanol amine, triethanol amine, dimethyl formamide, dimethyl sulfoxide, 5-30%): pure gel is formed neither in the cold nor in the warm
- Stable gel formation with solvents ([2]; methanol, ethanol, isopropanol, n-butanol, isobutanol, dichloromethane, chloroform, carbon tetrachloride, ethyl acetate, acetonitrile, n-hexane, petrol, benzene, toluene, petrolether, ether, dimethyl formamide, dimethyl sulfoxide, isopropyl myristate): None of the above solvents forms a stable gel with primycin
- Solubility in N-methyl-pyrrolidone (in words) [1]: not easily dissolved
- Temperature-dependance of the solubility [1]: more than two orders of magnitude
- Required amount of N-methyl pyrrolidone necessary to dissolve 0.1 g ([1]; (A) Room Temperature): does not dissolve
- Required amount of N-methyl pyrrolidone necessary to dissolve 0.1 g ([1]; (B) Under Heating): 0.5 milliliters
- Precipitation from 1% solutions (1% solutions prepared under heating, on cooling): primycin precipitated upon cooling
- Solubility, dissolved material (methanol): 2 µg/mL
- Solubility, dissolved material (propylene glycol): 5 µg/mL
- Solubility, dissolved material (water): 0.05 µg/mL
- Absorption into the blood stream (acne): not to be absorbed by the blood stream
- Skin irritation on topical application (acne): severe irritation to the skin
- Toxicity upon entry into the bloodstream (acne): significantly toxic
- Effect in combination with other antibiotics (gram-positive bacteria; Hungarian patent No. 158,241): synergistic effect
- Antibacterial spectrum (gram-positive bacteria; prior art): particularly effective against gram-positive bacteria but active against polyresistant human pathogenic strains as well
- Resistance development (gram-positive bacteria; prior art): No resistance has developed

Compound: Cn1c(=O)c2[nH]cnc2n(C)c1=O [theophyllin]
- Gel formation with N-methyl-pyrrolidone [2]: None of the above active ingredients form a stable transparent gel

Compound: COc1ccc(Cc2nccc3cc(OC)c(OC)cc23)cc1OC [papaverin]
- Gel formation with N-methyl-pyrrolidone [2]: None of the above active ingredients form a stable transparent gel

Compound: [H]/N=C(/N)N[C@H]1[C@H](O)[C@@H](O)[C@H](O[C@@H]2O[C@@H](C)[C@](O)(C=O)[C@H]2O[C@@H]2O[C@@H](CO)[C@H](O)[C@@H](O)[C@@H]2NC)[C@@H](N/C(N)=N\[H])[C@@H]1O [Streptomycin Sulfate]
- Required amount of N-methyl pyrrolidone necessary to dissolve 0.1 g ([1]; (A) Room Temperature): 20.0 milliliters
- Required amount of N-methyl pyrrolidone necessary to dissolve 0.1 g ([1]; (B) Under Heating): does not dissolve

Compound: CC(=O)Oc1ccccc1C(=O)O [acetyl salicylic acid]
- Gel formation with N-methyl-pyrrolidone [2]: None of the above active ingredients form a stable transparent gel

Compound: gentamycin
- Gel formation with N-methyl-pyrrolidone [2]: None of the above active ingredients form a stable transparent gel

Compound: C[C@@H]1[C@H](O)[C@@H](C)/C=C/C=C/CC/C=C/C=C/C=C/C=C/C(O[C@H]2O[C@H](C)[C@@H](O)[C@H](N)[C@@H]2O)CC2O[C@](O)(CC(O)C(O)CCC(O)CC(O)CC(O)CC(=O)O[C@H]1C)CC(O)C2C(=O)O (stereo partly drawn) [Nystatin]
- Required amount of N-methyl pyrrolidone necessary to dissolve 0.1 g ([1]; (A) Room Temperature): 5.0 milliliters
- Required amount of N-methyl pyrrolidone necessary to dissolve 0.1 g ([1]; (B) Under Heating): 2.0 milliliters
